Patent US6147077A, “2R,4S-hydroxyitraconazole isomers” (priority 1999, dated 2000)
Values after ≈ are worked out from the molar mass of the structure shown. Read-outs that look alike come from different tables or passages of the source.

Key:
Candida albicans = experiment: Antifungal MIC, Candida albicans; format: cell-based
Protocol: (§1) A 10 mL tube containing 4 mL of Sabourauds dextrose broth was inoculated with 1 colony of Candida albicans picked from a plate of pure culture. The strain was ordered from the American Type Culture Collection (ATCC). The organism was grown for 4 hours at 30° C. while shaking at 150 RPM. While the organism was growing, samples of hydroxy-itraconazoles were solubilized to a concentration of 10 mg/mL in DMSO. Each sample was then diluted 1:10 to make 1 mg/mL samples or 1000 μg/mL. These samples were then diluted by serial 2-fold dilutions to produce samples now containing 1000, 500, 250, 125, 62.5, 31.25, 15.6 μg/mL. […] At 4 hours of growth time the Candida albicans was diluted to a 0.5 McFarland standard representing about 10^5 -10^6 cells/mL and 1 μL of this inoculum placed into each test well of the microtiter dish. The dish was then covered and incubated at 30° C. for 16 hours.

A. fumigatis = experiment: Antifungal MIC, A. fumigatis; format: cell-based; conditions: A. fumigatis (Table 3)
Protocol: [The source words this procedure for another organism and reports this organism under the same test.] as §1

Sacchromyces cerevisae = experiment: Kirby-Bauer Testing, Saccharomyces cerevisiae; format: cell-based; conditions: 10 μl of 10 mg/mL per disk, 30° C., 16 hours; for zone of inhibition at 10000 µg/mL: Saccharomyces cerevisiae
Protocol: The hydroxyitraconazole isomers were tested for biological activity according three different assays.
Actively growing cultures of Candida albicans, Cryptococcus neoformens and Saccharomyces cerevisiae were prepared as described above. The cultures were diluted to a 0.5 McFarland standard and swabbed onto a 150 mm Sabouraud Dextrose agar plates. Paper disks (7 mm) were placed onto the agar plates using a disk dispenser. […] The plates were then incubated at 30° C. for 16 hours. Zones of inhibition were then measured in mm.

cytochrome P450 3A4 [1] = biological target: T1, cytochrome P450 3A4 (Homo sapiens, UniProt P08684); experiment: Inhibition of cytochrome P450 3A4 (testosterone 6β-hydroxylase activity); conditions: for IC50/MIC ratio in words: therapeutic index, 3A4 vs C. albicans 44203
T1 sequence (P08684 whole entry): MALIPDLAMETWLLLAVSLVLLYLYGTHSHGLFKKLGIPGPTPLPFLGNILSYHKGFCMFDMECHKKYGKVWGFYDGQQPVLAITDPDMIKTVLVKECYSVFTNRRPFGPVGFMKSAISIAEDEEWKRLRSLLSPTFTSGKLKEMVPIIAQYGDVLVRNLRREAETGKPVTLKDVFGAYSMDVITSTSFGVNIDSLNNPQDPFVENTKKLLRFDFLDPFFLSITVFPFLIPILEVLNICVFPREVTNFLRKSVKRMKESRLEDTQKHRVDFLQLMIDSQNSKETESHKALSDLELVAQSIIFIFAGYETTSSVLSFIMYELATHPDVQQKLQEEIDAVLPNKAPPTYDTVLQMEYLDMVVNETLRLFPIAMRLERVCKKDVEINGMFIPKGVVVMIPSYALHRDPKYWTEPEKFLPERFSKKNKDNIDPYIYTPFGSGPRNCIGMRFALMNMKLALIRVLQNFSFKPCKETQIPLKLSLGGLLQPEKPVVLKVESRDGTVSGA

S. cerevisae = experiment: Antifungal MIC, S. cerevisae; format: cell-based, Saccharomyces cerevisiae; conditions: S. cerevisae (Table 3); for MIC: Saccharomyces cerevisiae
Protocol: [The source words this procedure for another organism and reports this organism under the same test.] as §1

[2] = Water solubility of hydroxyitraconazole isomers and itraconazole; format: physicochemical; conditions: for solubility: water; for solubility / Water solubility: LOD: 5000 μV*sec, order-of-magnitude accuracy below LOD, 3+4 and 11+12 ±10%; for Area: λmax = 260 nm, LOD 5000 μV*sec
Protocol: The isomers of cis hydroxyitraconazole were tested for water solubility against a […] standard solution of hydroxyitraconazole. […] The values for 3+4 and 11+12 are barely above the LOD, giving accuracies of ±10%. In every case, solubilities were in the 10^1 to 10^2 ng/ml range.

Cr. neoformens = experiment: Antifungal MIC, Cr. neoformens; format: cell-based, Cryptococcus neoformens; conditions: Cr. neoformens (Table 3); for MIC: Cryptococcus
Protocol: [The source words this procedure for another organism and reports this organism under the same test.] as §1

delayed rectifier (IK) = conditions: cited from earlier work; for Effect on cardiac repolarization: Torsades de Pointes side effect
[3] = Water solubility of hydroxyitraconazole phosphate isomers (NMG salts); format: physicochemical; conditions: Table 8; for solubility: water
Text: The water solubility of the NMG salts of the phosphate esters of isomers 1, 2 and 3+4 were investigated and compared to the corresponding hydroxyitraconazole isomers 1, 2 and 3+4. The phosphate esters were as much as 10^7 times more water soluble than the corresponding hydroxyitraconazole isomer.

cytochrome P450 3A4 [4] = biological target: T1, cytochrome P450 3A4
Protocol: The IC50 values were determined by the appearance of 6β-hydroxytestosterone after incubation with testosterone. […] Of greater clinical significance is the ratio of the IC50 for 3A4 to the MIC for C. albicans 44203.

[5] = Candida albicans, C. albicans strain 28516 (Table 3), read-out: Antifungal MIC
[6] = Candida albicans, C. albicans strain 28815 (Table 3), read-out: Antifungal MIC
[7] = Candida albicans, C. albicans strain 44203 (Table 3), read-out: Antifungal MIC
[8] = Candida albicans, C. albicans strain 44373 (Table 3), read-out: Antifungal MIC
[9] = Candida albicans, Candida albicans strain 44203 (Table 4), read-out: MIC

CCC(C)n1ncn(-c2ccc(N3CCN(c4ccc(OC[C@H]5CO[C@](Cn6cncn6)(c6ccc(Cl)cc6Cl)O5)cc4)CC3)cc2)c1=O (stereo partly shown) [5 + 6]
MIC (Candida albicans; Candida albicans): 0.156 µg/mL

CC(O)C(C)n1ncn(-c2ccc(N3CCN(c4ccc(OC[C@@H]5CO[C@@](Cn6cncn6)(c6ccc(Cl)cc6Cl)O5)cc4)CC3)cc2)c1=O (stereo partly shown) [11 + 12]
MIC (A. fumigatis): 0.137 µg/mL | zone of inhibition at 10000 µg/mL (Sacchromyces cerevisae): 25 mm | selectivity ratio (cytochrome P450 3A4 [1]): 6.5 | MIC (S. cerevisae): 0.195 µg/mL | MIC (Candida albicans; Candida albicans, C. albicans strain 10231 (Table 3), read-out: Antifungal MIC): 1 µg/mL | MIC (Candida albicans; [5]): 0.25 µg/mL | MIC (Candida albicans; [6]): 0.125 µg/mL | MIC (Candida albicans; [7]): 0.05 µg/mL | MIC (Candida albicans; [8]): 0.5 µg/mL | MIC (Candida albicans; Candida albicans, C. albicans strain 62342 (Table 3), read-out: Antifungal MIC): 0.5 µg/mL | MIC (Candida albicans; [9]): 0.05 µg/mL | solubility [2]: 0.59 µg/mL | MIC (Cr. neoformens): 0.78 µg/mL

CC[C@@H](C)n1ncn(-c2ccc(N3CCN(c4ccc(OC[C@H]5CO[C@](Cn6cncn6)(c6ccc(Cl)cc6Cl)O5)cc4)CC3)cc2)c1=O [Compound 6, reference compound]
MIC (Candida albicans; Candida albicans): 0.312 µg/mL (≈ 0.443 µM)

CCN(CC)CCNC(=O)c1ccc(NC(C)=O)cc1 [acetyl-procainamide]
Effect on cardiac repolarization (delayed rectifier (IK)): prolongation of cardiac repolarization | Block of delayed rectifier (IK) (delayed rectifier (IK)): ability to block a cellular potassium channel called the delayed rectifier (IK)

CC(O)C(C)n1ncn(-c2ccc(N3CCN(c4ccc(OC[C@H]5CO[C@](Cn6cncn6)(c6ccc(Cl)cc6Cl)O5)cc4)CC3)cc2)c1=O (stereo partly shown) [3 + 4]
zone of inhibition at 10000 µg/mL (Sacchromyces cerevisae): 23 mm | solubility [3]: 2 µg/mL | selectivity ratio (cytochrome P450 3A4 [1]): 24 | MIC (Candida albicans; [9]): 0.1 µg/mL | solubility [2]: 1.97 µg/mL

CC(C)NCC(O)c1ccc(NS(C)(=O)=O)cc1 (stereo not shown) [sotalol]
Effect on cardiac repolarization (delayed rectifier (IK)): prolongation of cardiac repolarization | Block of delayed rectifier (IK) (delayed rectifier (IK)): ability to block a cellular potassium channel called the delayed rectifier (IK)

(2S,4R)-4-[4-[4-[4-[[2,4-dichlorophenyl)-2-(1H-1,2,4-triazol-1-ylmethyl)-1,3-dioxolan-4-yl]methoxy]phenyl]-1-piperazinyl]-2,4-dihydro-2-[(1S,2R)-(2-hydroxy-1-methylpropyl)]-3H-1,2,4,-triazol-3-one [Compound 2]
Antifungal MIC (A. fumigatis): 0.137 µg/mL | Kirby-Bauer zone of inhibition (Sacchromyces cerevisae): 20 mm | Water solubility [3]: < 0.01 µg/mL | Inhibition of P450 3A4 in words (cytochrome P450 3A4 [1]; testosterone 6β-hydroxylase activity): notably less inhibition of the P450 3A4 enzyme than the 2S,4R isomers | IC50/MIC ratio in words (cytochrome P450 3A4 [1]): excellent results | Antifungal MIC (S. cerevisae): 0.39 µg/mL | Antifungal MIC (Candida albicans; C. albicans strain 10231 (Table 3)): 0.5 µg/mL | Antifungal MIC (Candida albicans; C. albicans strain 28516 (Table 3)): 0.25 µg/mL | Antifungal MIC (Candida albicans; C. albicans strain 28815 (Table 3)): 0.5 µg/mL | Antifungal MIC (Candida albicans; C. albicans strain 44203 (Table 3)): 0.05 µg/mL | Antifungal MIC (Candida albicans; C. albicans strain 44373 (Table 3)): 0.25 µg/mL | Antifungal MIC (Candida albicans; C. albicans strain 62342 (Table 3)): 1.0 µg/mL | MIC (Candida albicans; Candida albicans strain 44203 (Table 4)): 0.05 µg/mL | Water solubility [2]: not detected | Area [2]: not even detected | Antifungal MIC (Cr. neoformens): 0.39 µg/mL | IC50 /MIC Ratio (cytochrome P450 3A4 [4]): 70

C[C@H](OP(=O)(O)O)[C@@H](C)n1ncn(-c2ccc(N3CCN(c4ccc(OC[C@H]5CO[C@](Cn6cncn6)(c6ccc(Cl)cc6Cl)O5)cc4)CC3)cc2)c1=O [2-PO3 --NMG2]
solubility [3]: > 100000 µg/mL

C[C@H](O)[C@@H](C)n1ncn(-c2ccc(N3CCN(c4ccc(OC[C@@H]5CO[C@@](Cn6cncn6)(c6ccc(Cl)cc6Cl)O5)cc4)CC3)cc2)c1=O [Compound 10]
MIC (A. fumigatis): 0.137 µg/mL (≈ 0.19 µM) | zone of inhibition at 10000 µg/mL (Sacchromyces cerevisae): 22 mm | selectivity ratio (cytochrome P450 3A4 [1]): 19 | MIC (S. cerevisae): 0.195 µg/mL (≈ 0.27 µM) | MIC (Candida albicans; [5]): 0.25 µg/mL (≈ 0.346 µM) | MIC (Candida albicans; [6]): 0.125 µg/mL (≈ 0.173 µM) | MIC (Candida albicans; [7]): 0.025 µg/mL (≈ 0.0346 µM) | MIC (Candida albicans; [8]): 0.25 µg/mL (≈ 0.346 µM) | MIC (Candida albicans; [9]): 0.025 µg/mL (≈ 0.0346 µM) | Water solubility [2]: not detected | Area [2]: not even detected | MIC (Cr. neoformens): 0.78 µg/mL (≈ 1.08 µM)

C[C@@H](O)[C@H](C)n1ncn(-c2ccc(N3CCN(c4ccc(OC[C@@H]5CO[C@@](Cn6cncn6)(c6ccc(Cl)cc6Cl)O5)cc4)CC3)cc2)c1=O [Compound 9]
MIC (A. fumigatis): 0.137 µg/mL (≈ 0.19 µM) | zone of inhibition at 10000 µg/mL (Sacchromyces cerevisae): 20 mm | selectivity ratio (cytochrome P450 3A4 [1]): 7.4 | MIC (S. cerevisae): 0.195 µg/mL (≈ 0.27 µM) | MIC (Candida albicans; [5]): 0.25 µg/mL (≈ 0.346 µM) | MIC (Candida albicans; [6]): 0.125 µg/mL (≈ 0.173 µM) | MIC (Candida albicans; [7]): 0.05 µg/mL (≈ 0.0693 µM) | MIC (Candida albicans; [8]): 0.25 µg/mL (≈ 0.346 µM) | MIC (Candida albicans; [9]): 0.05 µg/mL (≈ 0.0693 µM) | solubility [2]: 0.045 µg/mL (≈ 0.0624 µM) | MIC (Cr. neoformens): 0.78 µg/mL (≈ 1.08 µM)

C=C[C@H]1C[N@@]2CC[C@H]1C[C@@H]2[C@@H](O)c1ccnc2ccc(OC)cc12 [quinidine]
Effect on cardiac repolarization (delayed rectifier (IK)): prolongation of cardiac repolarization | Block of delayed rectifier (IK) (delayed rectifier (IK)): ability to block a cellular potassium channel called the delayed rectifier (IK)

CCC(C)n1ncn(-c2ccc(N3CCN(c4ccc(OC[C@@H]5CO[C@@](Cn6cncn6)(c6ccc(Cl)cc6Cl)O5)cc4)CC3)cc2)c1=O (stereo partly shown) [7 + 8]
MIC (Candida albicans; Candida albicans): < 0.078 µg/mL

CC(OP(=O)(O)O)C(C)n1ncn(-c2ccc(N3CCN(c4ccc(OC[C@H]5CO[C@](Cn6cncn6)(c6ccc(Cl)cc6Cl)O5)cc4)CC3)cc2)c1=O (stereo partly shown) [3 + 4-PO3 --NMG2]
solubility [3]: > 100000 µg/mL

CC[C@@H](C)n1ncn(-c2ccc(N3CCN(c4ccc(OC[C@@H]5CO[C@@](Cn6cncn6)(c6ccc(Cl)cc6Cl)O5)cc4)CC3)cc2)c1=O [Compound 8, reference compound]
MIC (Candida albicans; Candida albicans): < 0.078 µg/mL

CC[C@H](C)n1ncn(-c2ccc(N3CCN(c4ccc(OC[C@@H]5CO[C@@](Cn6cncn6)(c6ccc(Cl)cc6Cl)O5)cc4)CC3)cc2)c1=O [Compound 7, reference compound]
MIC (Candida albicans; Candida albicans): < 0.078 µg/mL

C[C@H](OS(=O)(=O)O)[C@@H](C)n1ncn(-c2ccc(N3CCN(c4ccc(OC[C@H]5CO[C@](Cn6cncn6)(c6ccc(Cl)cc6Cl)O5)cc4)CC3)cc2)c1=O [Compound 2-sulfate]
MIC (Candida albicans; Candida albicans, C. albicans (Table 7, esters), read-out: Antifungal MIC): 6.25 µg/mL (≈ 7.8 µM)

CC[C@H](C)n1ncn(-c2ccc(N3CCN(c4ccc(OC[C@H]5CO[C@](Cn6cncn6)(c6ccc(Cl)cc6Cl)O5)cc4)CC3)cc2)c1=O [Compound 5, reference compound]
MIC (Candida albicans; Candida albicans): 0.312 µg/mL (≈ 0.443 µM)

CC(O)C(C)n1ncn(-c2ccc(N3CCN(c4ccc(OC[C@H]5CO[C@](Cn6cncn6)(c6ccc(Cl)cc6Cl)O5)cc4)CC3)cc2)c1=O (stereo partly shown) [Compound 3 + 4]
IC50/MIC ratio in words (cytochrome P450 3A4 [1]): excellent results | Inhibition of P450 3A4 in words (cytochrome P450 3A4 [4]): notably less inhibition of the P450 3A4 enzyme than the 2S,4R isomers

C[C@@H](OP(=O)(O)O)[C@H](C)n1ncn(-c2ccc(N3CCN(c4ccc(OC[C@H]5CO[C@](Cn6cncn6)(c6ccc(Cl)cc6Cl)O5)cc4)CC3)cc2)c1=O [1-PO3 --NMG2]
solubility [3]: > 100000 µg/mL
